Data from PubChem BioAssay (NCI).
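Grown in 96-well plates, cells were treated for 48 hours with each compound at five concentrations. Insufficient inhibition: endpoint recorded as highest concentration tested. TGI is the concentration that stops growth completely.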

How the values were obtained:
Assay in all cases: NCI tumour cell line growth inhibition, 48 h
P388 leukemia = tested on: P388 leukemia
M19-MEL melanoma = tested on: M19-MEL melanoma
XF 498 CNS = tested on: XF 498 CNS
SNB-78 CNS = tested on: SNB-78 CNS
KM20L2 colon = tested on: KM20L2 colon
P388/ADR leukemia = tested on: P388/ADR leukemia
HOP-18 NSCLC = tested on: HOP-18 NSCLC
SN12K1 renal = tested on: SN12K1 renal
RXF-631 renal = tested on: RXF-631 renal

Measured: TGI

Nc1ccc2c(c1)C1=NNC(=O)CC1C2 (centres undefined)
> 100 µM: P388 leukemia | M19-MEL melanoma | XF 498 CNS | SNB-78 CNS | KM20L2 colon | P388/ADR leukemia | HOP-18 NSCLC | SN12K1 renal

O=C(N/C(=C\c1ccccc1[N+](=O)[O-])c1nc2ccccc2[nH]1)c1ccccc1
> 100 µM: M19-MEL melanoma | XF 498 CNS | SNB-78 CNS | KM20L2 colon | RXF-631 renal

O=c1[nH][nH]c(=O)[nH]1
> 100 µM: M19-MEL melanoma | XF 498 CNS | SNB-78 CNS | KM20L2 colon

CC1SC(c2ccccc2)N(Nc2c3ccccc3nc3ccccc23)C1=O (centres undefined)
> 100 µM: M19-MEL melanoma | XF 498 CNS | SNB-78 CNS | KM20L2 colon

CNC(C)Cc1ccccc1O (centres undefined)
> 100 µM: SNB-78 CNS | KM20L2 colon | HOP-18 NSCLC
